Measured values reported in PMC7284125, “Identification of annotated bioactive molecules that impair motility of the blood fluke Schistosoma mansoni” (International Journal for Parasitology: Drugs and Drug …, 2020).
Where two headings read alike, the source gives them in different places.

Experiments:
Type in all cases: cell-based, Schistosoma mansoni
S. mansoni adult worms = test: Motility assay on adult parasites (pixel displacement, relative to DMSO control); conditions: 10 μM; for Fractional motility: secondary screen; for motility phenotype in words: adults, long-term after washout
Method: Adult parasites were collected from 40 day-old female CD1 mice (Charles River) previously inoculated by the tail infection method ([Lewis, 2001]). Six weeks post-infection, mice were sacrificed, and adult worms extracted after perfusion of in the hepatic portal vein and mesenteric venules ([Lewis, 2001]). Animal procedures were reviewed and approved by the Facility Animal Care Committee of McGill University (Protocol No. 3346) and were conducted in accordance with the guidelines of the Canadian Council on Animal Care.
(§1) Schistosomulae (200/well) and adult parasites (unpaired worms) were maintained in 300 μL OPTI-MEM with 5% dialyzed FBS (without antibiotics) and exposed to compounds at 1 and 10 μM for 24 h. A kinetic assay consisting of 1, 3, 6 and 12 h incubation times was performed on selected hits by motility monitoring using a stereo microscope (SMZ1270, Nikon) for adults and an inverted microscope for schistosomulae (eclipse TE2000-U, Nikon) connected to a monochrome camera (DS-Qi2, Nikon) for image acquisition. Images were recorded at a rate of 10 frames/s for a period of 1 min and videos were analyzed using ImageJ software (version 1.41, NIH, USA). Parasite movement quantification and data analysis protocols were applied using the pixel displacement method ([Patocka et al., 2014]; [Rashid et al., 2015]) and compared to control parasites treated with DMSO. Parasites were then washed several times in Opti-MEM, 5% FBS and incubated up to an additional three days (schistosomulae) or five days (adult worms) at 37 °C, 5% CO2 and motility was recorded as described above.

[1] = tested on: S. mansoni schistosomulae; test: Motility assay on schistosomulae (pixel displacement, relative to DMSO control); conditions: for activity at 1 µM: Schistosoma mansoni, read-out: Fractional motility
Method: Puerto Rican strain Biomphalaria glabrata snails infected with S. mansoni were kindly provided by Dr. Fred Lewis (Biomedical Research Institute and BEI Resources, MD, USA). Schistosomulae were obtained by exposing six to eight weeks-old snails to continuous light for 2 h at 32 °C. The resulting suspension of cercaria was then mechanically transformed as described ([Lewis, 2001]) and cultured in Opti-MEM/antibiotics (Thermo Fisher Scientific, Waltham, MA) containing 100 μg/mL streptomycin and 100 units/ml penicillin supplemented with 5% fetal bovine serum (FBS; Thermo Fisher). Parasite cultures were incubated at 37 °C with 5% CO2 for at least 10 days with no apparent loss of viability. At this point, animals with internal dark granulations and with no observable body contraction/relaxation cycles were considered dead.
as §1

[2] = tested on: S. mansoni schistosomulae; test: Phenotypic primary screen assay on schistosomulae (phenotype; viability by methylene blue dye exclusion); conditions: for Viability (%) / Phenotype: three-day-old schistosomulae, 10 μM, 24 h; for Viability (%): calculated 5 days post compound exposure; for Phenotype: estimated 5 days post compound exposure
Method: Puerto Rican strain Biomphalaria glabrata snails infected with S. mansoni were kindly provided by Dr. Fred Lewis (Biomedical Research Institute and BEI Resources, MD, USA). Schistosomulae were obtained by exposing six to eight weeks-old snails to continuous light for 2 h at 32 °C. […] At this point, animals with internal dark granulations and with no observable body contraction/relaxation cycles were considered dead.
Schistosomulae were monitored under a stereo microscope (SMZ1270, Nikon). Phenotypic observations were made by analyzing schistosomulae, 24 h after drug addition to assess any immediate effect and five days post-compound exposure to observe long-term impacts on both the movement and overall body shape in comparison to control animals exposed to DMSO only.

[3] = schistosomulae, secondary screen, 24h exposure, read at D1, 1 µM
[4] = schistosomulae, secondary screen, 24h exposure, read at D1, 10 µM
[5] = schistosomulae, 1h exposure, read at D1, 10 µM
[6] = schistosomulae, 1h exposure, read at D5, 10 µM
[7] = schistosomulae, 3h exposure, read at D1, 10 µM
[8] = schistosomulae, 3h exposure, read at D5, 10 µM
[9] = schistosomulae, 6h exposure, read at D1, 10 µM
[10] = schistosomulae, 6h exposure, read at D5, 10 µM
[11] = schistosomulae, secondary screen, 24h exposure, read at D5, 1 µM
[12] = schistosomulae, secondary screen, 24h exposure, read at D5, 10 µM
[13] = 120 h, schistosomulae, secondary screen, 24h exposure, read at D5, 1 µM

SMILES | Fractional motility (S. mansoni adult worms; D1, Female adult worms) | Fractional motility (S. mansoni adult worms; D1, Male adult worms) | Fractional motility (S. mansoni adult worms; D5, Female adult worms) | Fractional motility (S. mansoni adult worms; D5, Male adult worms) | Fractional motility [1, 3] | Fractional motility [1, 4] | Viability (%) [2] | Phenotype [2] | motility phenotype in words (S. mansoni adult worms) | Fractional motility [1, 5] | Fractional motility [1, 7] | Fractional motility [1, 8] | Fractional motility [1, 9] | Fractional motility [1, 10] | Fractional motility [1, 11] | Fractional motility [1, 12] | other results
C#CC[C@H](c1nc2cc(Cl)ccc2c(=O)n1Nc1ccccc1)N(CCCN)C(=O)c1cccc(Cl)c1F [ARQ 621] | -0.48 | 0.41 | -0.43 | 0.0454 | 2.11 | 2.52 | 13% | dark, granulated | – | – | – | – | – | – | – | – | –
COc1cc(N2CCC(N)CC2)ccc1Nc1ncc(Cl)c(-c2c[nH]c3ccccc23)n1 [AZD3463] | -0.12 | 0.58 | -0.93 | -0.57 | 0.62 | 1.68 | 42,5% | dark, granulated | Significant hypomotility | 1.70 | 5.60 | -0.68 | 2.17 | -0.70 | 0.15 | -0.81 | Fractional motility [1, 6]: -0.84
CCCCc1oc2ccccc2c1C(=O)c1cc(I)c(OCCN(CC)CC)c(I)c1 [Amiodarone] | -0.67 | -0.41 | -0.58 | -0.38 | – | -0.80 | – | big, granulated | – | – | – | – | – | – | – | -0.98 | activity at 1 µM [1, 13]: 78%; activity at 1 µM [1, 3]: -11%
O=C(NC(NC(=S)Nc1ccc(F)c([N+](=O)[O-])c1)C(Cl)(Cl)Cl)C(c1ccccc1)c1ccccc1 (stereo not drawn) [CGK 733] | -0.10 | 0.12 | -0.83 | -0.19 | 0.41 | -0.71 | 62,5% | dark, granulated, some big | – | – | – | – | – | – | -0.07 | -0.90 | –
O=c1[nH]c2ccc(Cl)cc2c(N[C@@H]2CN3CCC2CC3)c1-c1nc2ccccc2[nH]1 [CHIR-124] | 4.53 | 10.48 | -0.48 | -0.25 | – | – | 77% | big | – | – | – | – | – | – | – | – | Fractional motility ([1]; Selleckchem customized library secondary screen, 24h, D1, 1 µM): 6.60; Fractional motility ([1]; Selleckchem customized library secondary screen, 24h, D1, 10 µM): 100.65
Cc1nc(C#Cc2ccnc(Cl)c2)c(C)n1-c1ccc(OC(F)(F)F)cc1 [CTEP] | -0.44 | -0.49 | -0.35 | -0.57 | 0.25 | 1.01 | 99% | big, granulated, blebbing | – | – | – | – | – | – | 0.27 | 0.27 | –
c1ccc(CNc2nc(NCc3ccccc3)c3ccccc3n2)cc1 [DBeQ] | 0.29 | 0.29 | -0.91 | -0.65 | 7.69 | 6.82 | 15,5% | dark, granulated | severely paralyzed adults | -0.96 | 1.19 | -0.88 | 0.41 | -0.13 | -0.29 | 4.98 | Fractional motility [1, 6]: -0.93
CCn1c2ccccc2c2cc(Nc3ccnc(NCCCN4CCOCC4)n3)ccc21 [EHop-016] | 0.25 | 0.85 | -0.62 | -0.29 | 3.03 | 0.07 | 80% | big, dark | – | – | – | – | – | – | 0.99 | -0.94 | –
CCOC(=O)CCNc1cc(N2CCc3ccccc3CC2)nc(-c2ccccn2)n1 [GSK J4] | -0.0455 | -0.11 | -0.64 | -0.63 | 0.46 | -0.85 | 5% | big, dark, granulated | Significant hypomotility | 0.43 | -0.55 | -0.56 | -0.78 | -0.70 | 0.88 | -1.00 | Fractional motility [1, 6]: 0.28
CCc1ccc(OCc2ccccc2C(=O)Nc2ccc3nc(C)cc(N)c3c2)cc1 [JTC-801] | 1.22 | 4.15 | – | -0.56 | 3.71 | -1.00 | 0% | big, granulated | – | -0.51 | -0.95 | -0.09 | -0.74 | -0.71 | 1.04 | -0.99 | effect on viability of schistosomulae in words ([2]; 24 h incubation, five days): lethal
c1cc(-c2cnn3cc(-c4ccc(N5CCNCC5)cc4)cnc23)c2cccnc2c1 [LDN-212854] | 0.29 | 0.78 | -0.84 | -0.87 | 3.02 | 11.26 | 0% | dark, granulated | Significant hypomotility | 9.63 | -0.97 | -0.97 | -0.98 | -0.92 | -0.46 | -0.80 | Fractional motility [1, 6]: -0.87; motility in extended assay with reduced incubation times, in words ([1]; three-day old schistosomulae, incubation 1 h, 3 h, 6 h): significant and sustained hypomotility
CCCCCCCCCCCCCCCCn1cc[n+](Cc2ccccc2)c1C.[I-] [NH125] | -0.74 | 0.53 | -0.89 | -0.87 | 1.58 | -0.66 | 18% | big, dark, granulated | Significant hypomotility | – | – | – | – | – | -0.08 | -0.55 | –
C/C(=N\NC(=S)N1CCC1)c1ccccn1 [NSC319726] | -0.13 | -0.16 | -0.84 | -0.08 | 0.0562 | 0.59 | 68% | dark, granulated | – | – | – | – | – | – | -0.75 | -0.93 | –
O=C(C1CCCCC1)N1CC(=O)N2CCc3ccccc3C2C1 (stereo not drawn) [PZQ, praziquantel] | -0.96 | -0.98 | -0.98 | -0.99 | – | -0.47 | – | – | – | – | – | – | – | – | – | -0.47 | activity at 1 µM [1, 13]: -29%; activity at 1 µM [1, 3]: -30%
